# Laboratory results from publication PMC8476755 (Frontiers in Chemistry, 2021).
# Biological target: T1, GAT1 (Homo sapiens, UniProt P30531)
# T1 construct: expressed in transfected cells
# Assay: FLIPR membrane potential (FMP) assay, CHO cells stably expressing GAT1
# Format: cell-based
# Details: n = 2
# Source text: In order to scrutinize the mode of inhibition of bicyclo-GABA and the N-methylated derivative 2, the ability to be translocated by BGT1 was investigated in the functional FMP assay able to discriminate between substrates and inhibitors, as previously described ([Al-Khawaja et al., 2014]).
# The tsA201 cell line (a transformed HEK293 cell line), the Flp-In CHO cell lines stably expressing human (h) GATs and the HEK293 cell line stably expressing human α1β2γ2 GABAA receptors have been described previously and were cultured accordingly ([Al-Khawaja et al., 2014]; [Falk-Petersen et al., 2020]). […]
# The FMP assay performed on human α1β2γ2 GABAA receptors in HEK293 cells was performed as described and data analyzed accordingly ([Falk-Petersen et al., 2020]). […] Test compound solutions were prepared at 4x concentration in assay buffer and added to ligand plates pre-heated at 37°C for 10–15 min in the FLEXstation3 plate reader (Molecular Devices). After incubation, 33.3 µL test compound solution (4x) was automatically transferred to each well in the cell plate and the signal was measured for 90 s by measuring emission at 560 nm caused by excitation at 530 nm. […] Data obtained in the FMP assay are given as relative changes in fluorescence units (ΔRFU) by subtracting the average of the baseline fluorescence signal from the peak fluorescence signal after compound addition. […]
# T1 sequence (P30531 whole entry): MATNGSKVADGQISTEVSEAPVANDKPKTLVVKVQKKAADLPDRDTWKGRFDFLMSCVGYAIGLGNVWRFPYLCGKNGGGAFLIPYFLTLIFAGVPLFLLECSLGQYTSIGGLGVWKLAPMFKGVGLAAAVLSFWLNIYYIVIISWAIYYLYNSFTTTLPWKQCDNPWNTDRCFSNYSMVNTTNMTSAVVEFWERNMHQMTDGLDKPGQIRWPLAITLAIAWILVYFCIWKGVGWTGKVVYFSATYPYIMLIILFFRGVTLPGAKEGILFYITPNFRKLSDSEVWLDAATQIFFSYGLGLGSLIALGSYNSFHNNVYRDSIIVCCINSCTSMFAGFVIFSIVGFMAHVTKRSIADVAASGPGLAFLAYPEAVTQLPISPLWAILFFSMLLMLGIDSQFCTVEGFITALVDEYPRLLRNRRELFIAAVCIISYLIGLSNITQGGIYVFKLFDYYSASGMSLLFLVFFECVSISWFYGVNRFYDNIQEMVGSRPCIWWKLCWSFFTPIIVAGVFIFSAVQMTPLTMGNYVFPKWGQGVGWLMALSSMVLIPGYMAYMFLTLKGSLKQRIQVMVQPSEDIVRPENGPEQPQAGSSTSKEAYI
structure (smiles),measurement,setting,value
"N[C@@]12CC[C@H](C(=O)O)[C@@H]1C2 [bicyclo-GABA, (1S,2S,5R)-5-aminobicyclo[3.1.0]hexane-2-carboxylic acid]",Inhibitory effect at GAT1,in the presence of GABA EC50 concentration (10 µM),specific to BGT1
same,Substrate activity at GAT1,"tested as substrate, without GABA",lack of activity
